Calls of active or inactive are those of the source. The rule behind the calls is not given here.
Assays:
Rattus norvegicus [1] = experiment: Anti-hepatic fibrosis activity in bile duct ligation rat model assessed as reduction in […] level at 100 mg/kg, po administered for 14 days; assay type: functional; conditions: time 14 day
Rattus norvegicus [2] = experiment: Anti-hepatic fibrosis activity in bile duct ligation rat model assessed as reduction in ALP level at 100 mg/kg, po administered for 14 days; assay type: functional; conditions: time 14 day
Rattus norvegicus [3] = experiment: Anti-hepatic fibrosis activity in bile duct ligation rat model assessed as reduction in ALT level at 100 mg/kg, po administered for 14 days; assay type: functional; conditions: time 14 day
LX-2 [4] = experiment: Anti-hepatic fibrosis activity in human LX2 cells assessed as inhibition of TGF-beta1 induced MMP-2 mRNA expression at 20 uM incubated for 24 hrs by qRT-PCR analysis; assay type: functional, cell-based
LX-2 [5] = experiment: Anti-hepatic fibrosis activity in human LX2 cells assessed as inhibition of TGF-beta1 induced CTGF mRNA expression at 20 uM incubated for 24 hrs by qRT-PCR analysis; assay type: functional, cell-based
LX-2 [6] = experiment: Anti-hepatic fibrosis activity in human LX2 cells assessed as inhibition of TGFbeta1-induced COL1A1 protein expression at 20 uM incubated for 24 hrs by western blot analysis; assay type: functional, cell-based
LX-2 [7] = experiment: Anti-fibrosis effect in human LX2 cells assessed as reduction in TGFbeta1-induced COL1A1 protein expression at 10 to 20 uM measured for 24 hrs; assay type: functional, cell-based; conditions: dose 10-20 µM
LX-2 [8] = experiment: Anti-fibrosis effect in human LX2 cells assessed as reduction in TGFbeta1-induced alpha-SMA mRNA expression at 10 to 20 uM measured for 24 hrs; assay type: functional, cell-based; conditions: dose 10-20 µM
LX-2 [9] = experiment: Anti-fibrosis effect in human LX2 cells assessed as reduction in TGFbeta1-induced MMP-2 mRNA expression at 10 to 20 uM measured for 24 hrs; assay type: functional, cell-based; conditions: dose 10-20 µM
LX-2 [10] = experiment: Anti-fibrosis effect in human LX2 cells assessed as reduction in TGFbeta1-induced fibronectin mRNA expression at 10 to 20 uM measured for 24 hrs; assay type: functional, cell-based; conditions: dose 10-20 µM
HSC-T6 [11] = experiment: Anti-fibrosis effect in HSC-T6 cells assessed as reduction in TGFbeta1-induced fibronectin protein expression measured for 24 hrs; assay type: functional, cell-based; conditions: Rattus norvegicus, dose 2.5-20 µM
HSC-T6 [12] = experiment: Anti-fibrosis effect in HSC-T6 cells assessed as reduction in TGFbeta1-induced integrin subunit alpha-V protein expression measured for 24 hrs; assay type: functional, cell-based; conditions: Rattus norvegicus, dose 2.5-20 µM
Rattus norvegicus [13] = experiment: Anti-hepatic fibrosis activity in bile duct ligation rat model assessed as reduction in bile duct hyperplasia at 100 mg/kg, po administered for 14 days by hematoxylin and eosin staining based analysis; assay type: functional, organism-based; conditions: time 14.0 day
Rattus norvegicus [14] = experiment: Anti-hepatic fibrosis activity in bile duct ligation rat model assessed as reduction in parenchyma necrosis at 100 mg/kg, po administered for 14 days by hematoxylin and eosin staining based analysis; assay type: functional, organism-based; conditions: time 14.0 day
Rattus norvegicus [15] = experiment: Anti-hepatic fibrosis activity in bile duct ligation rat model assessed as reduction collagen accumulation at 100 mg/kg, po administered for 14 days; assay type: functional, organism-based; conditions: time 14.0 day
Rattus norvegicus [16] = experiment: Anti-hepatic fibrosis activity in bile duct ligation rat model assessed as reduction hydroxyproline level at 100 mg/kg, po administered for 14 days; assay type: functional, organism-based; conditions: time 14.0 day
Rattus norvegicus [17] = experiment: Anti-hepatic fibrosis activity in bile duct ligation rat model assessed as reduction in CoL1A1 mRNA expression at 100 mg/kg, po administered for 14 days by qRT-PCR analysis; assay type: functional, organism-based; conditions: time 14.0 day
Rattus norvegicus [18] = experiment: Anti-hepatic fibrosis activity in bile duct ligation rat model assessed as reduction in TGFB1 mRNA expression at 100 mg/kg, po administered for 14 days by qRT-PCR analysis; assay type: functional, organism-based; conditions: time 14.0 day
Mus musculus [19] = experiment: Anti-hepatic fibrosis activity in MDR2 knockout liver injury mouse model assessed as reduction in COL1A1 protein expression at 100 mg/kg, po administered once a day for 4 weeks by Western blot analysis; assay type: functional, organism-based
Rattus norvegicus [20] = experiment: Anti-hepatic fibrosis activity in bile duct ligation rat model assessed as reduction in ITGAV protein expression at 100 mg/kg, po administered for 14 days by Western blot analysis; assay type: functional, organism-based; conditions: time 14.0 day
Rattus norvegicus [21] = experiment: Anti-hepatic fibrosis activity in bile duct ligation rat model assessed as reduction in LRAT positive cells in liver at 100 mg/kg, po administered for 14 days by Immunofluorescence analysis; assay type: functional, organism-based; conditions: time 14.0 day
Mus musculus [22] = experiment: Anti-hepatic fibrosis activity in MDR2 knockout liver injury mouse model assessed as reduction in ALP level at 100 mg/kg, po administered once a day for 4 weeks (reference value: 386.80+/-179.56 U/L); assay type: functional
Mus musculus [23] = experiment: Anti-hepatic fibrosis activity in MDR2 knockout liver injury mouse model assessed as reduction in serum TBA level at 100 mg/kg, po administered once a day for 4 weeks (reference value: 59.04+/-22.38 micromol/L); assay type: functional
Mus musculus [24] = experiment: Anti-hepatic fibrosis activity in MDR2 knockout liver injury mouse model assessed as reduction in TGFB1 mRNA expression at 100 mg/kg, po administered once a day for 4 weeks by qRT-PCR analysis; assay type: functional, organism-based
Mus musculus [25] = experiment: Anti-hepatic fibrosis activity in MDR2 knockout liver injury mouse model assessed as reduction in TGFbeta1 protein expression at 100 mg/kg, po administered once a day for 4 weeks by Western blot analysis; assay type: functional, organism-based
Mus musculus [26] = experiment: Anti-hepatic fibrosis activity in MDR2 knockout liver injury mouse model assessed as reduction in CTGF protein expression at 100 mg/kg, po administered once a day for 4 weeks by Western blot analysis; assay type: functional, organism-based
Mus musculus [27] = experiment: Anti-hepatic fibrosis activity in MDR2 knockout liver injury mouse model assessed as reduction inflammatory infiltration at 100 mg/kg, po administered once a day for 4 weeks by H and E staining analysis; assay type: functional, organism-based
[28] = target: T1, RNA-binding protein EWS (Homo sapiens) (UniProt Q01844); experiment: Binding affinity to EWSR1 (unknown origin) in human LX2 cells by streptavidin bead based pull-down assay; assay type: cell-based
T1 sequence (whole entry): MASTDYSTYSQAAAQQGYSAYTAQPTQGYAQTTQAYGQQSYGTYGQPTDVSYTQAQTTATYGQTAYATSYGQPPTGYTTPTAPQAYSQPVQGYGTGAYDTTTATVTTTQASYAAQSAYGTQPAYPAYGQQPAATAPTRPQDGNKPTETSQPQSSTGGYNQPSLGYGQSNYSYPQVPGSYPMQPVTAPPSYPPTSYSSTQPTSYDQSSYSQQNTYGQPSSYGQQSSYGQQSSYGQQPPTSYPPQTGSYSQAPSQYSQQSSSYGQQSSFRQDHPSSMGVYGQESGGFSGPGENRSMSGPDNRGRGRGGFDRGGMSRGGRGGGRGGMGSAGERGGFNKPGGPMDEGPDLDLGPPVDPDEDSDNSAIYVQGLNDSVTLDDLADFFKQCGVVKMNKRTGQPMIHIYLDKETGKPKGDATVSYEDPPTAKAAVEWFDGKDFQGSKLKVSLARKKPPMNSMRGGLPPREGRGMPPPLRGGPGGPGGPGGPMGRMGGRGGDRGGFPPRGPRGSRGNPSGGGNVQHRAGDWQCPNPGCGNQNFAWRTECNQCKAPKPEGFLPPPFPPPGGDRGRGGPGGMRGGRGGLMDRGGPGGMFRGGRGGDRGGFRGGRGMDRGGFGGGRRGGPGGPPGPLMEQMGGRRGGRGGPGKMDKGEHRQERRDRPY

LX-2 [29] = experiment: Effect on EWSR1 expression in human LX2 cells at 2.5 to 20 uM; assay type: functional, cell-based; conditions: dose 2.5-20 µM
LX-2 [30] = experiment: Downregulation of EWSR1 mRNA level in human LX2 cells; assay type: functional, cell-based

SMILES: CCCC[C@@H]1[C@H]2CCCN3CCC[C@@H](CN1C(=O)Nc1c(CC)cccc1CC)[C@@H]23
- Activity (Rattus norvegicus [1]): 36.5 U/L
- Activity (Rattus norvegicus [2]): 375 U/L
- Activity (Rattus norvegicus [3]): 60.67 U/L
- Activity (LX-2 [4]): Active
- Activity (LX-2 [5]): Active
- Activity (LX-2 [6]): Active
- Activity (LX-2 [7]): Active
- Activity (LX-2 [8]): Active
- Activity (LX-2 [9]): Active
- Activity (LX-2 [10]): Active
- Activity (HSC-T6 [11]): Dose-Dependent Effect
- Activity (HSC-T6 [12]): Dose-Dependent Effect
- Activity (Rattus norvegicus [13]): Active
- Activity (Rattus norvegicus [14]): Active
- Activity (Rattus norvegicus [15]): Active
- Activity (Rattus norvegicus [16]): Active
- Activity (Rattus norvegicus [17]): Active
- Activity (Rattus norvegicus [18]): Active
- Activity (Mus musculus [19]): Active
- Activity (Rattus norvegicus [20]): Active
- Activity (Rattus norvegicus [21]): Active
- Activity (Mus musculus [22]): 278.8 U/L
- Activity (Mus musculus [23]): 29.18 µmol/L
- Activity (Mus musculus [24]): Active
- Activity (Mus musculus [25]): Active
- Activity (Mus musculus [26]): Active
- Activity (Mus musculus [27]): Active
- Activity [28]: inactive
- Activity (LX-2 [29]): inactive
- Activity (LX-2 [30]): inactive

Source: ChEMBL document CHEMBL5338827, “Evolution and Discovery of Matrine Derivatives as a New Class of Anti-Hepatic Fibrosis Agents Targeting Ewing Sarcoma Breakpoint Region 1 (EWSR1)” (J Med Chem, 2023)
